From US12241087B2, “Compositions and methods for differentiating stem cells into NK cells” (CRISPR THERAPEUTICS AG, priority 2020, dated 2025)

Assays:
iPSC [1] = assay: CD45/CD56 expression on day 28 after early modulation of WNT signaling; assay type: cell-based, human
Protocol: For iPSC-HSPC differentiation optimization, CD45/CD56 expression on day 28 was measured (FIG. 10). The HSPC cells on day 6 were further differentiated to iNK in the StemPro-34—based differentiation media Table 12) in the presence of IL7, IL15, SCF. Flt3L, (IL3 was added for days 6-14 only). […] However, it was not an optimal condition as the single cells production and expansion was lower than in conditions in the presence of Activin A molecule (data not shown). Due to low CD56^+ cells formation on day 28, the HSPC to iNK differentiation conditions was optimized.

iPSC [2] = assay: Effect of CHIR-99021 concentration in NK-MED-005c medium on iNK induction; assay type: cell-based, human; settings: 2.5, 3.5 or 4.5 μM, differentiation day 20, AP2.0
Protocol: To determine the optimal concentration of CHIR-99021, different concentrations (2.5 μM, 3.5 μM or 4.5 μM) were added to the NK-MED-005c medium (Table 30) to test their effect on iNK induction. Differentiation proceeded according to Protocol 2 (AP2.0) as described in Example 11. Cells were collected and analyzed using flow cytometry to detect CD45^+CD56^+ cells at differentiation day 20.

HSPC [3] = assay: Design of Experiment (DoE) I, day 6 to day 20; assay type: cell-based, human; settings: differentiation and number of cells at day 20
Protocol: This Example reports the identification of optimized concentrations for certain components in the base media. A design of Experiment (DoE) study was performed to determine the concentrations of zinc sulfate, β-mercaptoethanol, human serum, and glucose that would provide the most differentiation and increased number of cells at differentiation day 20. These factors were selected based on known chemical/biological effects of them in affect general cell proliferation and differentiation. Potential positive/negative involvement of β-mercaptoethanol, zinc ion, human serum, and glucose in NIK cell or lymphocyte cell proliferation, killer cell receptor function, and cytotoxicity have been previously reported. There were no known studies conducted on testing optimal range of these factors in NK cell induction from HSPC.

HSPC [4] = assay: Stage II basal media testing (HSPC to iNK), day 21 single cells; assay type: cell-based, human; settings: in StemPro-based media
Protocol: This Example investigates the use of various alternative base media that can be used for Stage II differentiation. […] The HSPC to iNK differentiation from day 6 further on was done in StemPro-34—based media (Table 12). […] In this Example, the […] until day 6 as described in Example 2 (i.e., steps 1-5). Each media was supplemented with 20 ng/mL IL7, 20 ng/mL IL15, 20 ng/mL SCF, 20 ng/mL Flt3L and 5 ng/mL of IL-3 for days 6-14 and 20 ng/mL IL7, 20 ng/mL IL15, 20 ng/mL SCF, 20 ng/mL Flt3L for days 14-21 of differentiation.
Day 21 single cells were profiled for CD45^+/CD56^+, CD56^+/NKG2D^+, CD56^+/CD94^+, and CD56^+/CD16^+ expression (FIG. 12). […] The DMEM/F12 2:1 basal media was chosen due to its price and higher availability for scale up production.

HSPC [5] = assay: Effect of β-mercaptoethanol on differentiation, CD45 and CD56 expression; assay type: cell-based; settings: 50 μM in DMEM/F12 media with low zinc, low human serum
Protocol: To determine the effects of β-mercaptoethanol on differentiation, CD45+ and CD56+ expression was measured in cells cultured in Stempro34 media, DMEM/F12 media with low zinc, low human serum, and no β-mercaptoethanol (bME), or DMEM/F12 media with low zinc, low human serum, and 50 μM β-mercaptoethanol.

iPSC [6] = assay: Effect of WNT-C59 in NK-MED-006 medium on iNK induction; assay type: cell-based, human; settings: 2 μM, day 20 cultures, AP2.0
Protocol: The effect of including WNT-C59 (2 μM) in NK-MED-006 medium during iNK induction using the AP2.0 protocol was examined. […] The addition of WNT-C59 increased proportion of cells expressing non-NK lineage markers.

For `Cc1cnc(-c2cnc(NCCNc3ccc(C#N)cn3)nc2-c2ccc(Cl)cc2Cl)[nH]1` [CHIR-99021, 6-[[2-[[4-(2,4-Dichlorophenyl)-5-(5-methyl-1H-imidazol-2-yl)-2-pyrimidinyl]amino]ethyl]amino]-3-pyridinecarbonitrile], the “CD56+ percentage” value (iPSC [1]; day 28, condition #5, StemPro-34 based media) was “highest”, the “single cells production and expansion” value (iPSC [1]; versus conditions with Activin A, data not shown) was “lower” and the “proportion of CD45+CD56+ cells” value (iPSC [2]) was “highest proportion of CD45^+CD56^+ cells were collected using a moderate amount”.
`O=S(=O)([O-])[O-].[Zn+2]` [Zinc sulfate] was tested, and the “direction of effect in DoE I” value (HSPC [3]) was “positive effect”.
With `OCCS` [β-mercaptoethanol] the iNK differentiation (HSPC [4]) was “prevented iNK differentiation”, the “effect on iNK cell induction” value (HSPC [5]) was “negative effect” and the “direction of effect in DoE I” value (HSPC [3]) was “negative effect”.
`Cc1cc(-c2ccc(CC(=O)Nc3ccc(-c4cccnc4)cc3)cc2)ccn1` [WNT-C59] was tested, and the “proportion of cells expressing non-NK lineage markers” value (iPSC [6]) was “increased” and the “proportion of iNK that expressed the myeloid progenitor marker CD33” value (iPSC [6]) was “altered”.
